Laboratory results from publication PMC4232510, “Identification of Functionally Important Residues of the Rat P2X4 Receptor by Alanine Scanning Mutagenesis of the Dorsal Fin and Left Flipper Domains” (PLoS ONE, 2014).
Positions count from the first letter of the chain named.

What was measured:
Assay in all cases: whole-cell patch clamp, HEK293T cells expressing mutant
Assay type in all cases: cell-based
Conditions in all cases: for relative responsiveness: 100 µM agonist 2 s, relative to ATP (100%)
rP2X4R L214A mutant = biological target: T1, rP2X4R L214A mutant (Rattus norvegicus, UniProt P51577, L214A)
T1 construct: expressed in transfected cells; host or cells: HEK293T
T1 sequence (P51577 1-388 L214A): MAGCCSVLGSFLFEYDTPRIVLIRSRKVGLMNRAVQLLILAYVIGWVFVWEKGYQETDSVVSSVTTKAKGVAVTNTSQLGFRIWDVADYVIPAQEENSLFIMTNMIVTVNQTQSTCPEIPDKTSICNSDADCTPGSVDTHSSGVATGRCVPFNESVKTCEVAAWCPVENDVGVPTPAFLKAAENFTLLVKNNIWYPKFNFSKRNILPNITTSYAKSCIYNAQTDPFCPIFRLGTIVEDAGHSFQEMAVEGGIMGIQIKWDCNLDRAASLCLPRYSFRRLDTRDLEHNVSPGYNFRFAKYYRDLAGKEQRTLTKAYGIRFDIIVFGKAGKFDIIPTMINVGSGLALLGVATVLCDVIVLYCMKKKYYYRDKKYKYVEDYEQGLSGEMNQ

rP2X4R G291A mutant = biological target: T2, rP2X4R G291A mutant (Rattus norvegicus, UniProt P51577, G291A)
T2 construct: expressed in transfected cells; host or cells: HEK293T
T2 sequence (P51577 1-388 G291A): T1 sequence (P51577 1-388 L214A) with A214L, G291A

rP2X4R L284A mutant = biological target: T3, rP2X4R L284A mutant (Rattus norvegicus, UniProt P51577, L284A)
T3 construct: expressed in transfected cells; host or cells: HEK293T
T3 sequence (P51577 1-388 L284A): T1 sequence (P51577 1-388 L214A) with A214L, L284A

[1] = 100 µM ATP 60 s, biexponential fit
[2] = contribution of τdes2, 100 µM ATP 60 s
[3] = decay after removal of 1 or 3 µM ATP, 3 µM IVM
[4] = naïve receptors, 2–5 s application
[5] = 3 µM IVM 4-6 min vs IVM-untreated

In the case of “2′(3′-O-(4-Benzoylbenzoyl)adenosine 5′-triphosphate [BzATP]”, the relative responsiveness (rP2X4R L214A mutant) is reported as 5.9±0.5 %, the relative responsiveness (rP2X4R G291A mutant) is reported as 53.0±4.0 % and the relative responsiveness (rP2X4R L284A mutant) is reported as 20.6±0.2 %.
In the case of `CSc1nc(N)c2ncn([C@@H]3O[C@H](COP(=O)(O)OP(=O)(O)OP(=O)(O)O)[C@@H](O)[C@H]3O)c2n1` [2-MeS-ATP, 2-(Methylthio)adenosine 5′-triphosphate], the relative responsiveness (rP2X4R L214A mutant) is reported as 21.4±1.7 %, the relative responsiveness (rP2X4R G291A mutant) is reported as 36.9±8.8 % and the relative responsiveness (rP2X4R L284A mutant) is reported as 69.0±3.0%.
`Nc1ncnc2c1ncn2[C@@H]1O[C@H](COP(=O)(O)OP(=O)(O)OP(=O)(O)O)[C@@H](O)[C@H]1O` [ATP] was tested, and the “EC50 rightward shift compared to WT” value (rP2X4R L214A mutant) was “approximately 10 fold”, the τdes1 (rP2X4R L214A mutant; [1]) was 1.9 ± 0.4 s and the τdes2 (rP2X4R L214A mutant; [1]) was 12.6 ± 1.9 s. The Imax (rP2X4R L214A mutant; 100–1000 µM ATP) was 1.0 ± 0.2 nA, the “Imax+IVM” value (rP2X4R L214A mutant; ATP after 3 µM IVM 4-6 min) was 3.9 ± 0.8 nA and the “A2 /(A1+A2)” value (rP2X4R L214A mutant; [2]) was 62 ± 3%. For the same compound, the “τoff +IVM” value (rP2X4R L214A mutant; [3]) was 3.4 ± 0.6 s, the EC50 (rP2X4R L214A mutant; [4]) was 25 ± 5.7 µM and the τdes (rP2X4R L214A mutant; weighted, 100 µM ATP 60 s) was 8.8 ± 1.3 s. It also gave a τdes1 (rP2X4R G291A mutant; [1]) of 2.0 ± 0.5 s, a τdes2 (rP2X4R G291A mutant; [1]) of 16.5 ± 2.7 s and an Imax (rP2X4R G291A mutant; 100–1000 µM ATP) of 2.1 ± 0.2 nA. The “Imax+IVM” value (rP2X4R G291A mutant; ATP after 3 µM IVM 4-6 min) was 3.3 ± 0.4 nA, the “A2 /(A1+A2)” value (rP2X4R G291A mutant; [2]) was 69 ± 12% and the “τoff +IVM” value (rP2X4R G291A mutant; [3]) was 13 ± 1.0 s. The EC50 (rP2X4R G291A mutant; [4]) was 15 ± 3.8 µM, the τdes (rP2X4R G291A mutant; weighted, 100 µM ATP 60 s) was 13 ± 2.7 s and the τdes1 (rP2X4R L284A mutant; [1]) was 0.8 ± 0.1 s. The τdes2 (rP2X4R L284A mutant; [1]) was 7.2 ± 1.0 s, the Imax (rP2X4R L284A mutant; 100–1000 µM ATP) was 2.4 ± 0.3 nA and the “Imax+IVM” value (rP2X4R L284A mutant; ATP after 3 µM IVM 4-6 min) was 4.1 ± 0.3 nA. The “A2 /(A1+A2)” value (rP2X4R L284A mutant; [2]) was 60 ± 5%, the “τoff +IVM” value (rP2X4R L284A mutant; [3]) was 28 ± 2.3 s and the EC50 (rP2X4R L284A mutant; [4]) was 3.9 ± 1.9 µM. For the same compound, the τdes (rP2X4R L284A mutant; weighted, 100 µM ATP 60 s) was 4.8 ± 0.9 s.
With `Nc1ncnc2c1ncn2[C@@H]1O[C@H](CO[P@](=O)(O)O[P@](=O)(O)O[P@@](=O)(O)S)[C@@H](O)[C@H]1O` [ATPγS, Adenosine 5′-(γ-thio)triphosphate] the relative responsiveness (rP2X4R L214A mutant) was 7.9±2.0 %, the relative responsiveness (rP2X4R G291A mutant) was 31.6±6.1 % and the relative responsiveness (rP2X4R L284A mutant) was 32.4±8.2%.
With `CC[C@H](C)[C@H]1O[C@]2(CC[C@@H]1C)C[C@@H]1C[C@@H](C/C=C(\C)[C@@H](O[C@H]3C[C@H](OC)[C@@H](O[C@H]4C[C@H](OC)[C@@H](O)[C@H](C)O4)[C@H](C)O3)[C@@H](C)/C=C/C=C3\CO[C@@H]4[C@H](O)C(C)=C[C@@H](C(=O)O1)[C@]34O)O2` [IVM, ivermectin] the “Fold incr. Imax” value (rP2X4R L214A mutant; [5]) was 3.7 ± 0.7 fold, the “Fold incr. Imax” value (rP2X4R G291A mutant; [5]) was 1.4 ± 0.02 fold and the “Fold incr. Imax” value (rP2X4R L284A mutant; [5]) was 1.7 ± 0.1 fold.
For `Nc1ncnc2c1ncn2C1OC(COP(=O)(O)CP(=O)(O)OP(=O)(O)O)C(O)C1O` (stereo not drawn) [α,β-meATP, α,β-methyleneadenosine 5′-triphosphate], the relative responsiveness (rP2X4R L214A mutant) was 6.5±1.5 %, the relative responsiveness (rP2X4R G291A mutant) was 2.8±0.5 % and the relative responsiveness (rP2X4R L284A mutant) was 22.2±3.9%.
